Data as given in patent US10434067B2, “Composite formulation for oral administration comprising ezetimibe and rosuvastatin” (HANMI PHARM. CO., LTD., priority 2013, dated 2019).

Experiment: Forced degradation test of ezetimibe
Assay type: physicochemical
Conditions: for Amount of ezetimibe (%): 2 hours
Experimental: The main ingredient, ezetimibe was precisely weighed to about 100 mg and put in a 200 mL volumetric flask. Then, about 20 mL of 90% (v/v) acetonitrile (ACN) was added thereto, and then, completely dissolved by performing ultrasonic extraction for about 10 minutes. Next, the resultant mixture was subjected to a forced degradation test according to each condition using control, oxidation, a strong base, strong acid, and heat as described below.
1) Control: About 10 mL of distilled water was added to the mixture, and the mixture was left in an oven at a temperature of about 60° C. for about 2 hours to proceed a reaction, cooled down to room temperature, and 10 mL of distilled water was dropped thereto.
2) Oxidation: About 10 mL of a 0.5% (v/v) hydrogen peroxide solution was added to the mixture, and the mixture was left in an oven at a temperature of about 60° C. for about 2 hours to proceed a reaction, cooled down to room temperature, and 10 mL of distilled water was dropped thereto.
3) Strong base: About 10 mL of 0.1N NaOH was added to the mixture, and the mixture was left in an oven at a temperature of about 60° C. for about 2 hours to proceed a reaction, cooled down to room temperature, and t 10 mL of 0.1N HCl was dropped thereto (neutralization).
4) Strong acid: About 10 mL of 0.1N HCl was added to the mixture, and the mixture was left in an oven at a temperature of about 60° C. for about 2 hours to proceed a reaction, cooled down to room temperature, and about 10 mL of 0.1N NaOH 10 mL was dropped thereto (neutralization).
5) Heat: About 10 mL of distilled water was added to the mixture, and the mixture was left in an oven at a temperature of about 105° C. for about 2 hours to proceed a reaction, cooled down to room temperature, and about 10 mL of distilled water was dropped thereto.
Then, each of the samples obtained from the degradation test was cooled down to room temperature, and an extract solvent (i.e., a mixed solution of about 0.1 ml of 85% phosphate solution and about 1,000 ml of acetonitrile) was added thereto for each condition above, thereby preparing a test liquid in an amount of 200 mL. Then, the test liquid was analyzed by ‘HPLC’ according to General Tests as set forth in the Korean Pharmacopoeia and calculated according to a ‘quantitation testing method’ and an ‘related compound testing method’, and the amounts of ezetimibe and its main degradation products having […] relative retention time (RRT) were calculated as shown in Table 9 below and FIG. 1.
In addition, the amounts of related compounds of each of the test liquids were calculated, and then, analyzed in connection with an RRT for respective test liquids.

SMILES: O=C1[C@H](CC[C@H](O)c2ccc(F)cc2)[C@@H](c2ccc(O)cc2)N1c1ccc(F)cc1 [ezetimibe]
- Total % of related compounds in test liquid (Control): 0.63%
- related compound at relative retention time 0.15 (Control): − (Less than 0.05%)
- related compound at relative retention time 0.18 (Control): ++ (0.10% or greater and less than 0.20%)
- related compound at relative retention time 0.26 (Control): − (Less than 0.05%)
- related compound at relative retention time 0.47 (Control): +++ (0.20% or greater and less than 0.50%)
- related compound at relative retention time 0.54 (Control): − (Less than 0.05%)
- related compound at relative retention time 0.64 (Control): − (Less than 0.05%)
- related compound at relative retention time 0.67 (Control): − (Less than 0.05%)
- related compound at relative retention time 0.74 (Control): − (Less than 0.05%)
- related compound at relative retention time 1.11 (Control): − (Less than 0.05%)
- related compound at relative retention time 1.18 (Control): − (Less than 0.05%)
- related compound at relative retention time 1.37 (Control): ++ (0.10% or greater and less than 0.20%)
- Amount of ezetimibe (%) (Control: distilled water, 60° C.): 57.90%
- Total % of related compounds in test liquid (Heat): 1.97%
- related compound at relative retention time 0.15 (Heat): − (Less than 0.05%)
- related compound at relative retention time 0.18 (Heat): ++ (0.10% or greater and less than 0.20%)
- related compound at relative retention time 0.26 (Heat): − (Less than 0.05%)
- related compound at relative retention time 0.47 (Heat): ++++ (0.50% or greater and less than 1.0%)
- related compound at relative retention time 0.54 (Heat): − (Less than 0.05%)
- related compound at relative retention time 0.64 (Heat): − (Less than 0.05%)
- related compound at relative retention time 0.67 (Heat): − (Less than 0.05%)
- related compound at relative retention time 0.74 (Heat): − (Less than 0.05%)
- related compound at relative retention time 1.11 (Heat): − (Less than 0.05%)
- related compound at relative retention time 1.18 (Heat): + (0.05% or greater and less than 0.10%)
- related compound at relative retention time 1.37 (Heat): ++++ (0.50% or greater and less than 1.0%)
- Amount of ezetimibe (%) (Heat: distilled water, 105° C.): 0.21%
- Total % of related compounds in test liquid (Oxidation): 0.61%
- related compound at relative retention time 0.15 (Oxidation): − (Less than 0.05%)
- related compound at relative retention time 0.18 (Oxidation): ++ (0.10% or greater and less than 0.20%)
- related compound at relative retention time 0.26 (Oxidation): − (Less than 0.05%)
- related compound at relative retention time 0.47 (Oxidation): +++ (0.20% or greater and less than 0.50%)
- related compound at relative retention time 0.54 (Oxidation): − (Less than 0.05%)
- related compound at relative retention time 0.64 (Oxidation): − (Less than 0.05%)
- related compound at relative retention time 0.67 (Oxidation): − (Less than 0.05%)
- related compound at relative retention time 0.74 (Oxidation): − (Less than 0.05%)
- related compound at relative retention time 1.11 (Oxidation): − (Less than 0.05%)
- related compound at relative retention time 1.18 (Oxidation): − (Less than 0.05%)
- related compound at relative retention time 1.37 (Oxidation): ++ (0.10% or greater and less than 0.20%)
- Amount of ezetimibe (%) (Oxidation: 0.5% hydrogen peroxide, 60° C.): 61.06%
- Total % of related compounds in test liquid (Strong acid): 0.45%
- related compound at relative retention time 0.15 (Strong acid): + (0.05% or greater and less than 0.10%)
- related compound at relative retention time 0.18 (Strong acid): ++ (0.10% or greater and less than 0.20%)
- related compound at relative retention time 0.26 (Strong acid): ++ (0.10% or greater and less than 0.20%)
- related compound at relative retention time 0.47 (Strong acid): − (Less than 0.05%)
- related compound at relative retention time 0.54 (Strong acid): − (Less than 0.05%)
- related compound at relative retention time 0.64 (Strong acid): − (Less than 0.05%)
- related compound at relative retention time 0.67 (Strong acid): − (Less than 0.05%)
- related compound at relative retention time 0.74 (Strong acid): − (Less than 0.05%)
- related compound at relative retention time 1.11 (Strong acid): − (Less than 0.05%)
- related compound at relative retention time 1.18 (Strong acid): − (Less than 0.05%)
- related compound at relative retention time 1.37 (Strong acid): − (Less than 0.05%)
- Amount of ezetimibe (%) (Strong acid: 0.1N HCl, 60° C.): 100.31%
- Total % of related compounds in test liquid (Strong base): 21.48%
- related compound at relative retention time 0.15 (Strong base): + (0.05% or greater and less than 0.10%)
- related compound at relative retention time 0.18 (Strong base): +++++ (1.0% or greater)
- related compound at relative retention time 0.26 (Strong base): + (0.05% or greater and less than 0.10%)
- related compound at relative retention time 0.47 (Strong base): +++ (0.20% or greater and less than 0.50%)
- related compound at relative retention time 0.54 (Strong base): +++++ (1.0% or greater)
- related compound at relative retention time 0.64 (Strong base): +++ (0.20% or greater and less than 0.50%)
- related compound at relative retention time 0.67 (Strong base): ++ (0.10% or greater and less than 0.20%)
- related compound at relative retention time 0.74 (Strong base): + (0.05% or greater and less than 0.10%)
- related compound at relative retention time 1.11 (Strong base): + (0.05% or greater and less than 0.10%)
- related compound at relative retention time 1.18 (Strong base): ++ (0.10% or greater and less than 0.20%)
- related compound at relative retention time 1.37 (Strong base): +++++ (1.0% or greater)
- Amount of ezetimibe (%) (Strong base: 0.1N NaOH, 60° C.): 1.56%
- stability of ezetimibe (in words) (in a basic environment): unstable
- stability of ezetimibe (in words) (under an acidic condition): stable
